Patent publication US20200085734A1, “PHARMACEUTICAL DOSAGE FORMS CONTAINING TASK-I AND TASK-3 CHANNEL INHIBITORS, AND THE USE OF SAME IN BREATHING DISORDER THERAPY” (priority 2016, published 2020)
Marks after values point to notes of the source that are not given here.

Tested on: collapsibility of the upper airways
Assay: Animal model of obstructive sleep apnoea in the pig (collapse of the upper airways under negative pressure after nasal administration)
Assay type: in vivo, German Landrace pigs
Description: The effects of the formulations according to the invention of the inhibitors of TASK-1 and/or TASK-3 channels on the activation threshold of the genioglossus muscle by negative pressure and the collapsibility of the upper airways were investigated in a pig model for obstructive sleep apnoea. Using negative pressure, it is possible to induce collapse and thus obstruction of the upper airways in anaesthetized, spontaneously breathing pigs [Wirth et al., Sleep 36, 699-708 (2013)]. German Landrace pigs were used for the model. Since the nasal axis is in an almost vertical position in humans in a horizontal sleeping position, the pigs in the experiments were fixed in a sitting position (70 degrees), wherein the nose pointed upwards. After nasal administration, the formulation therefore flowed downwards over all regions of the upper airways. The pigs were anaesthetized and tracheotomized. One cannula each was inserted into the rostral and the caudal part of the trachea. Using a T connector, the rostral cannula was connected on the one hand to a device generating negative pressure and on the other hand to the caudal cannula. Using a T connector, the caudal cannula was connected to the rostral cannula and to a tube which allowed spontaneous breathing circumventing the upper airways. By appropriate closing and opening of the tubes it was thus possible for the pig to change from normal nasal breathing to breathing via the caudal cannula during the time when the upper airways were isolated and were connected to the device for generating negative pressure. The muscle activity of the Musculus genioglossus was recorded by electromyogram (EMG). At certain points in time, the collapsibility of the upper airways was tested by having the pig breathe via the caudal cannula and applying negative pressures of −50, −100 and −150 mbar (corresponding to −50, −100 and −150 cm water column (cm H2O)) to the upper airways. This caused the upper airways to collapse, which manifested itself in an interruption of the airflow and a pressure drop in the tube system. This test was conducted prior to administration of the test substance and at certain intervals after administration of the test substance. An appropriately effective test substance could prevent this collapse of the airways in the inspiratory phase. After changeover from nasal breathing to breathing via the caudal cannula, it was not possible to measure any EMG activity of the Musculus genioglossus in the anaesthetized pig. As a further test, the negative pressure at which EMG activity restarted was then determined. This threshold value was, if a test substance was effective, shifted to more positive values. The test was likewise conducted prior to the administration of the test substance and at certain intervals after the administration of the test substance. The test substance was administered by the nasal route. The results shown in the tables which follow were conducted with the compounds listed in Table 1 as Example 1, Example 3 and Example 4. Unless stated otherwise, the data were measured at a negative pressure of −100 mbar (corresponding to −100 cm water column (cm H2O)) on the upper airways. The active ingredients listed in Table 1 as Example 1, Example 3 and Example 4 were dissolved in the various formulations listed in Table 2 below and administered in an amount of 0 μg, 3 μg, 10 μg, 30 μg or 100 μg per pig. The active ingredient formulation or the pure vehicle was each administered with a pipette at a volume of 400 μl in each nostril. The duration of action in this pig model is defined as the time [min] in which a collapse of the upper airways was not observed in any animal, as a mean value of the specified number of animals. A duration of action specified as “>” X min signifies that the experiment was terminated at X min and up to this point a collapse of the upper airways was still not observed in any animal

## O=C(C1CCCC1)N1CCN(Cc2c(-c3ccc(Br)cc3)nc3ccccn23)CC1 [Example 1, (4-{[2-(4-bromophenyl)imidazo[1,2-a]pyridin-3-yl]methyl}piperazin-1-yl)(cyclopentyl)methanone]
Formulation 1 (0% PEG400), 10 μg nasal, reduced pressure -50 mbar
  Duration of action, mean value: 150 min
Formulation 1 (0% PEG400), 10 μg nasal, reduced pressure -100 mbar
  Duration of action, mean value: 120 min
Formulation 3 (20% w/v PEG400), 10 μg nasal, reduced pressure -50 mbar
  Duration of action, mean value: >210 min
Formulation 3 (20% w/v PEG400), 10 μg nasal, reduced pressure -100 mbar
  Duration of action, mean value: 180 min

## COc1cccc(C(=O)N2CCN(Cc3c(-c4ccc(Cl)cc4)nc4ccccn34)CC2)n1 [Example 3, (4-{[2-(4-chlorophenyl)imidazo[1,2-a]pyridin-3-yl]methyl}piperazin-1-yl)(6-methoxypyridin-2-yl)methanone]
Formulation 1 (phosphate buffer pH 7/polysorbate 80 90/10, 0% PEG400), 3 μg nasal per pig, -100 mbar
  Duration of action, mean value: 150 min
Formulation 1 (phosphate buffer pH 7/polysorbate 80 90/10, 0% PEG400), 30 μg nasal per pig, -100 mbar
  Duration of action, mean value: 180* min
Formulation 2 (100% w/v PEG400), 3 μg nasal, -100 mbar
  Duration of action, mean value: >240 min
Formulation 3 (phosphate buffer pH 7/polysorbate 80/PEG400 70/10/20), 3 μg nasal per pig, -100 mbar
  Duration of action, mean value: 180 min
Formulation 3 (phosphate buffer pH 7/polysorbate 80/PEG400 70/10/20), 30 μg nasal per pig, -100 mbar
  Duration of action, mean value: 300 min
Formulation 4 (5% w/v PEG400, 10% polysorbate 80, 85% phosphate buffer pH 7), 3 μg nasal, -100 mbar
  Duration of action, mean value: 180 min
Formulation 5 (2.5% w/v PEG400, 10% polysorbate 80, 87.5% phosphate buffer pH 7), 3 μg nasal, -100 mbar
  Duration of action, mean value: 150 min
Formulation 6 (20% w/v PEG400, 2.5% w/v glycerol 85%, 10% polysorbate 80, 67.5% phosphate buffer pH 7), 3 μg nasal, -100 mbar
  Duration of action, mean value: 240 min
Formulation 7 (20% w/v propylene glycol, 10% polysorbate 80, 70% phosphate buffer pH 7), 30 μg nasal, -100 mbar
  Duration of action, mean value: 180 min
Formulation 9 (1.25% w/v Na-CMC, 10% polysorbate 80, 88.75% phosphate buffer pH 7, no PEG), 3 μg nasal, -100 mbar
  Duration of action, mean value: 120 min

## O=C(c1ccccc1F)N1CCN(Cc2c(-c3ccc(Br)cc3)nc3ccccn23)CC1 [Example 4, (4-{[2-(4-bromophenyl)imidazo[1,2-a]pyridin-3-yl]methyl}piperazin-1-yl)(2-fluorophenyl)methanone]
Formulation 1 (0% PEG400), 100 μg nasal, reduced pressure -50 mbar
  Duration of action, mean value: 180 min
Formulation 1 (0% PEG400), 100 μg nasal, reduced pressure -100 mbar
  Duration of action, mean value: 180 min
Formulation 3 (20% w/v PEG400), 100 μg nasal, reduced pressure -50 mbar
  Duration of action, mean value: >210 min
Formulation 3 (20% w/v PEG400), 100 μg nasal, reduced pressure -100 mbar
  Duration of action, mean value: 180 min
